{"source": "patent US20260256799A1", "about": "“INHIBITORS FOR TREATING SOLID TUMOURS” (UNIVERSITY OF SOUTHAMPTON, priority 2023, published 2026)", "key": {"[1]": {"test_system": "HNSCC and NSCLC CAF", "assay": "Established myoCAF phenotype of CAF cultured ex vivo", "type": "cell-based, human", "protocol": "Human NSCLC cell line H441, HNSCC SCC25, murine cancer cell line TC-1 (lung), MC38 (colon) and human fetal foreskin fibroblasts HFFF2 were purchased from European Collection of Cell Cultures (Public Health England) or ATCC; HNSCC 5PT [32] were provided by l. Mackenzie (Queen Mary University of London, UK). HEK-293T cells and IMR90 lung fibroblasts were provided by Jesus Gil (Imperial College, London, UK). SCC25 were grown in Ham's F12:DMEM (1:1 ratio) medium with 10% FBS (Calbiochem) and 292 μg/ml L-Glutamine. 5PT were cultured in keratinocyte growth medium. HEK-293T, H441, MC38, HFFF2, IMR90 and primary fibroblasts were grown in DMEM supplemented with 10% FBS and 292 μg/ml L-Glutamine. Primary fibroblasts were isolated as previously used at early passage (p1-10). C57BL/6 murine normal lung and colon fibroblasts (MLF and MCF respectively) were grown at 3% oxygen. TC-1 were cultured in RPMI supplemented with 10% FBS and 292 μg/ml L-Glutamine. All cell cultures were routinely tested for mycoplasma contamination. All cells were cultured using standard cell culture plates/flasks (Corning). HFFF2 or IMR90 cells were transfected with 25 μM On-Target pool siRNA (Thermo Scientific/Dharmacon) using Oligofectamine reagent (Life Technologies) as described. Stable knockdown was performed using retro/lentiviral mediated transduction of shRNA plasmids, as previously described followed by cell selection using 1 μg/ml puromycin for 5-7 days. NOX4-inducible HEK-293 cells (kindly provided by Vincent Jaquet) were treated with 1 μg/ml doxycycline. Wild type and mutant (C2991L) ATM over-expression was carried out transfecting HFFF2 with Viafect (Promega) according to manufacturer's instructions and selected for 10 days with 4 mg/ml G418. p-Retrosuper-shATM (ATM #1:912) and pCDNA3.1-Flag-mut-ATM (C2991L; pTP1625 clone) were kindly provided by Yosef Shiloh and Tanya Paull respectively. pLKO.1 murine shATM (TRCN0000012643) and pCDNA3.1-Flag-wt-ATM (31985) were purchased from Sigma and Addgene respectively. 2 ng/ml TGF-3 (TGF-β1; R&D Systems; for 3 days) was used to induce myofibroblast differentiation. 10 ng/ml IL-1pR (R&D Systems) for 72 hours was used to induce iCAF differentiation. […] All the inhibitors were resuspended in DMSO. To trigger DDR activation and/or cell stress HFFF2 were either irradiated with 2-100Gy using 350Kv X-Ray Irradiation System (Faxitron), or treated with 100 ng/ml Neocarzinostatin for 2 hours (NCS; Sigma), with 2-10 mM H2O2(Fisher Scientific) or with 5 μg/ml Cisplatin (Sandoz) for 30 minutes.\nCells were lysed in ice-cold RIPA buffer [1% NP40, 150 mM NaCl, 25 mM Tris-HCl pH 7.5, 0.1% SDS, 1% Na-Deoxycolate, 1 mM EGTA, 1 mM EDTA, 1 mM Na-orthovanadate, 10 mM Na-fluoride, 2.5 mM Na-pyrophosphate, 1 mM p glycerophosphate+freshly added 1 mM PMSF, 20 mM N-Ethylmaleimide (NEM), 10 ng/ml Microcystin-LR, 0.12 μM Okadaic acid and phosphatase and protease inhibitor cocktails; all from Sigma]. Protein extracts were then centrifuged and supernatants quantified using Dc-Bio-Rad protein assay kit (Bio-Rad laboratories) as previously. For nuclear-cytoplasmic protein extraction, the inventors used NE-PER Reagents according to manufacturer's instructions (Thermofisher). Equal amounts of protein were electrophoresed either in reducing (+Dithiothreitol, DTT) or in non-reducing conditions in 3-8% or 4-12% SDS-PAGE gels and electro blotted as previously."}, "[2]": {"test_system": "TC-1 cells", "assay": "Isograft model TC-1 alone (control, myoCAF-low tumours)", "type": "in vivo, C57/BL6 female mice", "details": "AZD0156 20 mg/Kg oral gavage daily", "protocol": "All mouse experiments were performed according to national and international guidelines and were approved by the authors' institutional review board and the UK Home Office. Xenograft model: 6.7×10^5 PT cells±2×10^6 HFFF2 cells were resuspended in 100 μl PBS and injected s.c. in the flank of partially immunocompromised, male RAG1−/−C57BL/6 mice (3-5 months old). Isograft models: 0.5×10^5 TC-1 cells±3×10^5 TGF-β1-treated murine lung fibroblasts (myoMLFs) or 1×10^5 MC38 cells±5×10^5 TGF-β1-treated murine colon fibroblasts (myoMCFs) were resuspended in 100 μl PBS and injected s.c. in the flank of C57/BL6 female mice (6-8 weeks old). 5-8 animals for both models were used per group. Tumour size was measured over time using an electronic caliper and calculated using the formula 4π/3×r3 [radius (r) calculated from the average diameter, measured as the tumour width and length]. […]\nThe area under the curve (AUC) for each individual tumour within a treatment group for multiple experiments was analyzed by ordinary Two-way Anova using as two independent variables ‘the experiments’ (factor 1) and ‘the treatments’ (factor 2), and as dependent variable ‘the AUC’ of each mouse; then, the inventors looked at just factor 2. […]"}}}
{"compound": "CN(C)CCCOc1ccc(-c2ccc3ncc4c(c3c2)n(C2CCOCC2)c(=O)n4C)cn1", "note": "[AZD0156]", "values": [{"measurement": "myoCAF differentiation (reversal)", "setting": "[1]; CAF E treated with AZD0156 for 5 days, Q-RT-PCR", "result": "reversed"}, {"measurement": "reversal of myoCAF differentiation after AZD0156 treatment was discontinued", "setting": "[1]; CAF E, 5 days AZD0156 then further 5 days without AZD0156", "result": "maintained"}, {"measurement": "growth of control (myoCAF-low) tumours", "setting": "[2]", "result": "minimal effect"}]}
